Experiments:
lipoamide = compound: NC(=O)CCCCC1CCSS1 [lipoamide]; assay: thermal stability z-score vs DMSO; higher = more thermally stabilized by treatment; conditions: HeLa, lipoamide concentration 100 µM
Procedure: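 Cellular thermal proteome profiling in HeLa cells. Cells were treated with 100 µM lipoamide for 1 h, with or without 1 mM arsenate for a further 1 h, then heated to ten temperatures (37-66.3 °C), and soluble protein was quantified by TMT mass spectrometry relative to 0.1% DMSO controls. The thermal stability score (sum of log2 fold changes minus the abundance score) was transformed to a z-score; mean of n = 3 experiments.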

potassium arsenate = compound: O=[As]([O-])(O)O.[K+] [potassium arsenate]; assay: as above; conditions: HeLa; arsenate concentration 1 mM
Procedure: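 Cellular thermal proteome profiling in HeLa cells treated with 1 mM arsenate for 1 h (DMSO pretreatment), heated to ten temperatures (37-66.3 °C). Soluble protein was quantified by TMT mass spectrometry relative to DMSO controls; the thermal stability score was transformed to a z-score; mean of n = 3 experiments.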

[1] = arsenate co-treatment: 1 mM arsenate 1 h
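Note: each temperature applied for 3 min, abundance score taken as mean log2 fold change at the two lowest temperatures, z-score obtained by mean subtraction and division by SD.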

Chain of UniProt O95544 (O95544 whole entry): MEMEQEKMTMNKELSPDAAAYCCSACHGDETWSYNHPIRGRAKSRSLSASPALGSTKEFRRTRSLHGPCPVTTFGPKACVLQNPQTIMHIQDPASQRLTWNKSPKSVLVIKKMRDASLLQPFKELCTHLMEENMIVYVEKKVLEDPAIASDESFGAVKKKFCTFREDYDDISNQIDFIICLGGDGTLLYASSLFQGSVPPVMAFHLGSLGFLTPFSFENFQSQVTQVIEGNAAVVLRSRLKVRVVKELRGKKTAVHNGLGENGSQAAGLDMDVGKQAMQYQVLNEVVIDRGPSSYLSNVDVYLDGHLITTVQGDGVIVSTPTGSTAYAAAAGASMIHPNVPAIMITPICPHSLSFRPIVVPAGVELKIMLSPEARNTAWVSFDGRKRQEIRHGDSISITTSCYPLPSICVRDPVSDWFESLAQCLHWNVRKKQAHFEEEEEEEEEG
Chain of UniProt Q03393 (Q03393 whole entry): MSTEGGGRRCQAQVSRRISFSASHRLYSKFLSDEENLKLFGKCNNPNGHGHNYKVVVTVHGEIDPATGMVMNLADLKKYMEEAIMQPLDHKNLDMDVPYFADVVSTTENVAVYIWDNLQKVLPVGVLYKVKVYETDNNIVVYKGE
Chain of UniProt Q5T9L3 (Q5T9L3 whole entry): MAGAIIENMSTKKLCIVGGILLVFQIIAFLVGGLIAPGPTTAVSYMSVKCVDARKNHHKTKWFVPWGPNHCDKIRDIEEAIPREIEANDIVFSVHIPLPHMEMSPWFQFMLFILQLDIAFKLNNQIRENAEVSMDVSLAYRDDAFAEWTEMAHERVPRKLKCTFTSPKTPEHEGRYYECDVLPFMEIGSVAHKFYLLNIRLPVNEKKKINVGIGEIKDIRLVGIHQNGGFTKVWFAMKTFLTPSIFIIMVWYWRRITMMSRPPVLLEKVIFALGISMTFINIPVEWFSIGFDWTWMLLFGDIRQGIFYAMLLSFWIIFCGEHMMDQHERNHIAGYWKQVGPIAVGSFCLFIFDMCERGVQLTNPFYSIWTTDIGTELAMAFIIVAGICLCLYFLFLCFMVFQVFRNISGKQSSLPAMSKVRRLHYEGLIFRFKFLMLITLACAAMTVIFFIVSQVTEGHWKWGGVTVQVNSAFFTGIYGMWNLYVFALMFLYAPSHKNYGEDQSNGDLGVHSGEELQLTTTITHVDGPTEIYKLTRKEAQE
Chain of UniProt Q96Q05 (Q96Q05 whole entry): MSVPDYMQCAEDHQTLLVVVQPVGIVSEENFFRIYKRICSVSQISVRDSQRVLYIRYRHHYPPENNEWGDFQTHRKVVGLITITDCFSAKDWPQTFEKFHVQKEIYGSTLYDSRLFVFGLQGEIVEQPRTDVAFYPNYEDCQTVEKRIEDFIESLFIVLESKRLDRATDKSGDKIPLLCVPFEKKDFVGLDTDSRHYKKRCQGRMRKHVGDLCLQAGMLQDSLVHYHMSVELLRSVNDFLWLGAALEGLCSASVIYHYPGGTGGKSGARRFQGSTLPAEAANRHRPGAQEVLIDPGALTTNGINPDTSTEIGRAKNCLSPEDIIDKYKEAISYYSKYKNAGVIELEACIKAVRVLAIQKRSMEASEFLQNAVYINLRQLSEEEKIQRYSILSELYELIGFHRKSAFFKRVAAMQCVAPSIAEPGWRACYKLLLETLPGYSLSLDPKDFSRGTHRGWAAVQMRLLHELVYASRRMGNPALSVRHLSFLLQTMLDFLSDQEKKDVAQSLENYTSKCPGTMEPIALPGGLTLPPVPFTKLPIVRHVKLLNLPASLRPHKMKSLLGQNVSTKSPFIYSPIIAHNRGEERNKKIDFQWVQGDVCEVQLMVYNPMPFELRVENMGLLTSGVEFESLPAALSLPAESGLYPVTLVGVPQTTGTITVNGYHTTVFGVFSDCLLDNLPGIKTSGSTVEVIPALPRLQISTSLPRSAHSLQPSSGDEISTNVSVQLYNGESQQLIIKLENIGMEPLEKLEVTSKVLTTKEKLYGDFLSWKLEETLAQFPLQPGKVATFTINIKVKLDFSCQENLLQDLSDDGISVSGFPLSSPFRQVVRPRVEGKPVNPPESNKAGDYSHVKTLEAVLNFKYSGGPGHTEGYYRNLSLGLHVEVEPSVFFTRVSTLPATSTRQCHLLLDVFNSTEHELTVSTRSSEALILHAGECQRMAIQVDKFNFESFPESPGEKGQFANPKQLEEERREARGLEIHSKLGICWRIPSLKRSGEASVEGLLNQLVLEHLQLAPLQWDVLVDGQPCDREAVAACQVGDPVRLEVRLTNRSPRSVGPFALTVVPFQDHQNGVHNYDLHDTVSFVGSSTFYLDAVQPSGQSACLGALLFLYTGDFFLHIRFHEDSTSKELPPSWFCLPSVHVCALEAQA
Chain of UniProt P51659 (P51659 whole entry): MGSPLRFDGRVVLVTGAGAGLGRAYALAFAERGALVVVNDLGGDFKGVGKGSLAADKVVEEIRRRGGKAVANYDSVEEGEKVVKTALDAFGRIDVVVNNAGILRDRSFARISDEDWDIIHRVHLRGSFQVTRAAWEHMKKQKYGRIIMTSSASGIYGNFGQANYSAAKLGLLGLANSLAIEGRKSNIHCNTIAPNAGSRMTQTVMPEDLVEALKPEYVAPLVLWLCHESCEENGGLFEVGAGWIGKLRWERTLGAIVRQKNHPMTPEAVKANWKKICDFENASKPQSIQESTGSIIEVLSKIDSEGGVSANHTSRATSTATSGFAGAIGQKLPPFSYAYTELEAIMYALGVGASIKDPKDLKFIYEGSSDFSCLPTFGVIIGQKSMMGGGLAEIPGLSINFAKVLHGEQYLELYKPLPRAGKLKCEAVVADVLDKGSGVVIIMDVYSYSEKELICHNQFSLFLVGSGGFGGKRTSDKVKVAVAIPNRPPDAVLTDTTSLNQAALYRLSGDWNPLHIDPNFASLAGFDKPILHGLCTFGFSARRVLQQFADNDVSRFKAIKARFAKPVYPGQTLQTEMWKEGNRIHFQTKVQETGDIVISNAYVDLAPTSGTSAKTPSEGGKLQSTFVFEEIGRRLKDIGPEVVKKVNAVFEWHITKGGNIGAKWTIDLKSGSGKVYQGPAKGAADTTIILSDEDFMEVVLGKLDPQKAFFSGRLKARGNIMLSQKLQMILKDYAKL
Chain of UniProt Q6NUK4 (Q6NUK4 whole entry): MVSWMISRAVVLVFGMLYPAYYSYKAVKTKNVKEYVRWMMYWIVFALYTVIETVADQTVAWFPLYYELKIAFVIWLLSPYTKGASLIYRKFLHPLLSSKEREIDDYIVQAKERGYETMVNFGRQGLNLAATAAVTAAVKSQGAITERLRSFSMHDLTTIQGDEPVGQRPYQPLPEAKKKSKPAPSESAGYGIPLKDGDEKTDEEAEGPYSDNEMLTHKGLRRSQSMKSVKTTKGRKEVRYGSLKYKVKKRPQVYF
Chain of UniProt O95989 (O95989 whole entry): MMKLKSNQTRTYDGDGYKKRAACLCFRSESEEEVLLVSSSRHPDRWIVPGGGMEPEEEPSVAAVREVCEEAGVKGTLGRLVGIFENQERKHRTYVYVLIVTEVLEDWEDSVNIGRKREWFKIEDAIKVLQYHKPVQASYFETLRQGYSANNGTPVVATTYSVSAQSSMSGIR
Chain of UniProt Q9NP97 (Q9NP97 whole entry): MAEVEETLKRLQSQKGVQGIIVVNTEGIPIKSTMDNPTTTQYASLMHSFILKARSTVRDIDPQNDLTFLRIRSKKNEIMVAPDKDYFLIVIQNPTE
Chain of UniProt Q8WVK2 (Q8WVK2 whole entry): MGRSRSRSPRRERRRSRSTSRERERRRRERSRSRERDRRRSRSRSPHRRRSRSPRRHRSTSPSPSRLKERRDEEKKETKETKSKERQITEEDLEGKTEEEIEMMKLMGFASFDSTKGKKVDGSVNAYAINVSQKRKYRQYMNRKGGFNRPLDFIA
Chain of UniProt O95757 (O95757 whole entry): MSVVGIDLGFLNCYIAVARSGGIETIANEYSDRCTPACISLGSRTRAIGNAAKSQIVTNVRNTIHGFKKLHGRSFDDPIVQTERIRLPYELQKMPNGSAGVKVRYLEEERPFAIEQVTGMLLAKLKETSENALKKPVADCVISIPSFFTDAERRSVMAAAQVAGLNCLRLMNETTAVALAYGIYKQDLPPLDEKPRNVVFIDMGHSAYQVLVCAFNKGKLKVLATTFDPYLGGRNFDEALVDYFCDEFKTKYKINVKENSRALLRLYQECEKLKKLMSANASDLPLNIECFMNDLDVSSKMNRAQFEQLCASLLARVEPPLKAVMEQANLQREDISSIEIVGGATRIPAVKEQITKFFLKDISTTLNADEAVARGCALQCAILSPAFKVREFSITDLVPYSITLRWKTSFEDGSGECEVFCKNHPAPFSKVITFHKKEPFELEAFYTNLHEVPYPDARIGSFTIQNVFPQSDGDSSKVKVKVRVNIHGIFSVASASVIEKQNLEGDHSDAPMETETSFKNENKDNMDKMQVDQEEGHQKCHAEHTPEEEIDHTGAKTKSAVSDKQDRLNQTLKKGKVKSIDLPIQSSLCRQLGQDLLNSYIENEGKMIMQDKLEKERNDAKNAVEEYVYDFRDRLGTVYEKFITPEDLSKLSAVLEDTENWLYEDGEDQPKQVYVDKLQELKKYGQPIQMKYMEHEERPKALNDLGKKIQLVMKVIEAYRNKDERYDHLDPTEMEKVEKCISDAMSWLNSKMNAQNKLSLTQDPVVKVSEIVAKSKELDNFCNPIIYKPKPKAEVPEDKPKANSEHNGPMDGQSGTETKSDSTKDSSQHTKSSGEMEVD
Chain of UniProt Q9Y371 (Q9Y371 whole entry): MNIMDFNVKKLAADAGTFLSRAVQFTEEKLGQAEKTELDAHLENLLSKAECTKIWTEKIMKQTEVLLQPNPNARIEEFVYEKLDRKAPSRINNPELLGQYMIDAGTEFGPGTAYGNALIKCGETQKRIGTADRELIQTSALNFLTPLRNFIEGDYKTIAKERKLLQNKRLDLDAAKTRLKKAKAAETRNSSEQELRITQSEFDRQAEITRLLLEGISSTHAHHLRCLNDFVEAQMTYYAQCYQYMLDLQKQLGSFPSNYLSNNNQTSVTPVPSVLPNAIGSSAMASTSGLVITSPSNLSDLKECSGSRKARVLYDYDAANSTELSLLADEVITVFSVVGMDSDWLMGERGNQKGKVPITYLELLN

Target	thermal stability z-score (lipoamide; [1])	thermal stability z-score (lipoamide; arsenate co-treatment: none)	thermal stability z-score (potassium arsenate)
TACC1 (UniProt O75410)	0.293	0.0761	0.526
REPIN1 (UniProt Q9BWE0)	-0.686	-0.309	0.53
HSPA4L (UniProt O95757)	0.0785	-0.0888	0.388
SIN3A (UniProt Q96ST3)	-0.000782	0.0569	-0.303
KLC4 (UniProt Q9NSK0)	-1.48	0.259	0.297
MARK1 (UniProt Q9P0L2)	-0.126	-0.153	0.249
CFAP20 (UniProt Q9Y6A4)	0.686	-0.433	1.07
RABGEF1 (UniProt Q9UJ41)	-0.0343	-0.0874	-0.113
MZT2B (UniProt Q6NZ67)	0.0548	0.181	0.0663
DYNLRB1 (UniProt Q9NP97)	-0.37	0.743	0.237
TRAPPC9 (UniProt Q96Q05)	0.0964	-0.258	0.167
COG6 (UniProt Q9Y2V7)	-0.00556	-0.0575	-0.012
HIST1H1C (UniProt P16403)	0.707	0.018	0.0976
FBXO45 (UniProt P0C2W1)	0.369	0.292	0.229
CRYZL1 (UniProt O95825)	-0.0756	-0.692	-0.358
EIF2B1 (UniProt Q14232)	0.317	0.317	0.364
CBX4 (UniProt O00257)	-0.406	0.212	0.529
FOXRED1 (UniProt Q96CU9)	-0.111	-0.24	0.0548
NADK (UniProt O95544)	0.88	0.314	-0.183
SAMD4B (UniProt Q5PRF9)	0.14	0.116	-0.143
RAB32 (UniProt Q13637)	-0.0545	-0.0863	0.411
RPS6KA1 (UniProt Q15418)	-0.0567	-0.413	0.0783
REEP3 (UniProt Q6NUK4)	0.197	-0.171	-0.0274
SLC18B1 (UniProt Q6NT16)	-0.405	-0.045	-0.173
NSL1 (UniProt Q96IY1)	0.254	-0.0663	-0.0597
GTF2E2 (UniProt P29084)	-0.693	-0.556	0.0275
PRSS21 (UniProt Q9Y6M0)	-3	-2.45	1.03
ATP2A2 (UniProt P16615)	-1.16	-0.667	-0.0158

Target	thermal stability z-score (lipoamide; [1])	thermal stability z-score (lipoamide; arsenate co-treatment: none)	thermal stability z-score (potassium arsenate)
SNRNP27 (UniProt Q8WVK2)	0.418	-0.21	0.444
SIAE (UniProt Q9HAT2)	0.527	0.537	0.741
WLS (UniProt Q5T9L3)	-2.04	-1.12	0.0899
HSD17B4 (UniProt P51659)	0.258	0.497	0.201
PLD1 (UniProt Q13393)	-0.0197	0.0638	0.0184
KIAA0368|ECM29	-0.212	0.501	0.537
L1CAM (UniProt P32004)	0.0694	-0.375	-0.0837
NCAPH (UniProt Q15003)	-1.04	-0.316	0.387
PIGG (UniProt Q5H8A4)	-0.479	-0.752	0.14
ANKRD13A (UniProt Q8IZ07)	0.0649	-0.0472	-0.0666
EMC7 (UniProt Q9NPA0)	-0.402	-0.134	-0.101
JAK1 (UniProt P23458)	-0.359	0.296	0.123
USP1 (UniProt O94782)	-0.779	-0.444	-0.221
SH3GLB1 (UniProt Q9Y371)	-0.179	-0.0481	0.658
TXN (UniProt P10599)	0.913	0.827	0.598
NUDT3 (UniProt O95989)	0.511	0.241	-0.213
WBP11 (UniProt Q9Y2W2)	0.102	0.283	0.254
PTS (UniProt Q03393)	0.382	-0.301	0.981
RTFDC1 (UniProt Q9BY42)	-1.39	-0.367	-1.48
CDC27 (UniProt P30260)	0.122	0.0944	-0.522
ATG4B (UniProt Q9Y4P1)	0.0217	-0.419	-0.73
MSTO1 (UniProt Q9BUK6)	0.101	-0.0527	-0.742
STRN (UniProt O43815)	0.402	0.602	0.345
YIPF5 (UniProt Q969M3)	-0.255	-0.344	-0.18
CTBP1 (UniProt Q13363)	1.13	-0.19	0.629
SBNO1 (UniProt A3KN83)	0.158	0.686	0.146
HP1BP3 (UniProt Q5SSJ5)	-0.693	-0.792	-1.08

— the supplement of paper PMC12463676, “Small-molecule dissolution of stress granules by redox modulation benefits ALS models” (Nature Chemical Biology, 2025)
